# Measured values taken from PMC4165007 (The Indian Journal of Medical Research, 2014).
# Legend:
# [1] = oral; cited from earlier work
# [2] = cited from earlier work
# [3] = sublingual; cited from earlier work
# [4] = cited from earlier work; remark: listed apart in the source
# pepsin = pepsin (Sus scrofa, UniProt P00791); assay: Digestion with simulated gastric fluid; type: in vitro ADME; details: SGF pepsin, gastric pH, data not shown
# purified chymotrypsin = assay: Incubation with purified chymotrypsin; type: in vitro ADME; details: data not shown
# pepsin, sequence (P00791 60-385): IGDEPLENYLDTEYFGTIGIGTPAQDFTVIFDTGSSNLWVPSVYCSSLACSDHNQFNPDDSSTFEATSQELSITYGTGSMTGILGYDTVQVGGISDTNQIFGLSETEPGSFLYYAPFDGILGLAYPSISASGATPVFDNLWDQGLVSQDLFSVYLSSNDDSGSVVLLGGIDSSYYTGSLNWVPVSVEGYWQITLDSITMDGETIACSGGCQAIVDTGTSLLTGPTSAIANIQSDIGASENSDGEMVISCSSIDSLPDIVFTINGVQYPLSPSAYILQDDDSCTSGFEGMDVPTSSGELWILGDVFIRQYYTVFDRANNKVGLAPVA
Compound,"bioavailability, given orally to pigs [1]",stability during digestion with human gastric juice [2],"bioavailability, given sublingually in humans [3]",half-life of injected OT in the plasma [4],OT hydrolysis on increasing the peptic digestion time to 12 h (pepsin),effect of incubation with purified chymotrypsin (purified chymotrypsin)
"CC[C@H](C)[C@@H]1NC(=O)[C@H](Cc2ccc(O)cc2)NC(=O)[C@@H](N)CSSC[C@@H](C(=O)N2CCC[C@H]2C(=O)N[C@@H](CC(C)C)C(=O)NCC(N)=O)NC(=O)[C@H](CC(N)=O)NC(=O)[C@H](CCC(N)=O)NC1=O [OT, Oxytocin]",very poor,stable,very poor,5 to 7 min,did not result in OT hydrolysis,led to its hydrolysis
arginine-vasopressin,–,stable,–,–,–,–
